This assay deals with T1, A2BARs (rat cortical neurons) (Rattus norvegicus, UniProt P29276).
T1 construct: gene Adora2b; native receptor in membranes of primary cortical neurons from day-18 rat embryos
T1 sequence (P29276 1-332): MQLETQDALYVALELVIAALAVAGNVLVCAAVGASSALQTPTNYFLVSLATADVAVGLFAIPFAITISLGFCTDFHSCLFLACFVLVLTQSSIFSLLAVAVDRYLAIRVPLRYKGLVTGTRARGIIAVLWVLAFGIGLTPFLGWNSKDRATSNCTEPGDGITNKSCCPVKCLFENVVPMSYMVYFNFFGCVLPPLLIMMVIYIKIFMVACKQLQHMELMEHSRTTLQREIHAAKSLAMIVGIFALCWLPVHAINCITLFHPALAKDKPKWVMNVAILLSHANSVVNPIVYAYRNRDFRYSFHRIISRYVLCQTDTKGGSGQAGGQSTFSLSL
The assay can be described thus: radioligand saturation binding, membranes. The following applies: rat cortical neuron membranes, no PEMF; labelled compound. The source says: radioligand saturation binding, membranes on A2BARs (rat cortical neurons)

For one compound, Kd results are on record in article PMC3382599, “The Anti-Tumor Effect of A3 Adenosine Receptors Is Potentiated by Pulsed Electromagnetic Fields in Cultured Neural Cancer Cells” (PLoS ONE, 2012).

`CCCn1c(=O)c2[nH]c(-c3cc(OCC(=O)Nc4ccc5c(c4)OCO5)nn3C)nc2n(CCC)c1=O` [[3H]-MRE 2029F20, [^3H]-N-benzo [1], [3]dioxol-5-yl-2-[5-(2,6-dioxo-1,3-dipropyl-2,3,6,7-tetrahydro-1H-purin-8-yl)-1-methy-1H-pyrazol-3-yl-oxy]-acetamide] returned a Kd of 1.52 ± 0.11 nM.
